Measured values from US20210100777A1, “HEAT SHOCK PROTEIN (HSP) INHIBITION AND MONITORING EFFECTIVENESS THEREOF” (H. LEE MOFFITT CANCER CENTER AND RESEARCH INSTITUTE, INC., priority 2013, published 2021).

How the values were obtained:
[1] = test system: heat shock proteins (HSPs) in RPMI-8226 multiple myeloma cells; test: LC-MRM quantification of HSP expression before and 24 hours after 17-DMAG (Example 1); assay type: cell-based, human; conditions: 106 nM 17-DMAG
Protocol: Monitoring HSPs in multiple myeloma cells. RPMI-8226 multiple myeloma cells were cultured in suspension as described above with the addition of 100 units/mL penicillin/streptomycin. Stock 17-dimethylaminoethylamino-17-demethoxy-geldanamycin (17-DMAG) was dissolved in DMSO at a concentration of 10 mM. Based on prior IC50 measurements, the RPMI-8226 cells were treated with 106 nM 17-DMAG for 24 hours.
RPMI-8226 cells (n=10^6) were lysed using […] aqueous 8M urea with 100 mM ammonium bicarbonate. Protein concentration was measured by the Bradford assay and 0.38 μg of protein (equivalent to 3,750 cells) was injected for LC-MRM analysis of control and drug-treated samples. The proteins were reduced with 2 mM TCEP, alkylated with 20 mM IAA, and digested overnight in solution with trypsin at 37° C. Corresponding stable-isotope-labeled internal standard peptides were added to the samples after digestion. Then, peptides were extracted using pipette tips packed with C18 reversed-phase resin (Ziptip, Millipore; Billerica, Mass.) and concentrated to dryness by vacuum centrifugation (Speedvac, Thermo), and resuspended in aqueous 2% ACN with 0.1% formic acid prior to MS. LC-MRM was performed as described above. Quantification is achieved by using the sum of the peak areas for all detected transitions using QuanBrowser (Xcalibur, Thermo, San Jose, Calif.) or Skyline. The ratio of peak area of the endogenous peptide over corresponding internal standard was calculated for each peptide in the sample to enable absolute and relative quantification. Relative protein expression after treatment was normalized to the pretreatment control for each cell line and plotted to show the change in expression after drug treatment. Bubble plots were created using the SigmaPlot 10 (SPSS).

HSPs in RPMI-8226 cells = test: DI-MRM relative quantification of HSPs after 17-DMAG (Example 2); assay type: cell-based, human; conditions: RPMI-8226, 100 nM
Protocol: Synthesis and DI MRM of Standard Peptides. Standard peptides were synthesized and characterized as described previously (Remily-Wood et al., Proteomics Clin. Appl. 5:383-96 (2011)). An automated chip-based nanoelectrospray ion source, (NanoMate100, Advion BioSciences, Ithaca, N.Y.), was mounted on a triple quadrupole mass spectrometer (TSQ Vantage, Thermo, San Jose, Calif.). […] (SEQ ID NO:17) were diluted to 1 μM in 50% aqueous ACN with 0.1% formic acid. For synthetic peptide infusion, the spray voltage was tuned between 1.5 and 1.9 kV for stable ion signal. The gas pressure was set to 0.3 psi. Data were acquired at 20 ms per transition for 2 minutes using m/z 0.002 scan widths. The quadrupole resolution values were modulated from 0.2 to 0.7.
Standard Protein DI-MRM. As described below, a dilution series of BSA digest was created in 50% aqueous acetonitrile with 0.1% formic acid spiked with five synthetic peptide standards (20 nM). In DI-MRM, the spray voltage was set to 1.6 kV, and the gas pressure was set to 0.3 psi. Peptide selection was performed using Q1=0.4; fragment ion selection was performed using Q3=0.7. Transitions (n=36) were monitored for 20 ms each with scan width set to 0.002; data were acquired for 5 minutes.
Cell Culture, Lysis, and HSP Sample Preparation for Mass Spectrometry. RPMI-8226 and 8226/LR5 cells were maintained as previously described (Bellamy et al., Cancer Res. 51:995-1002 (1991); Remily-Wood et al., Proteomics Clin. Appl. 5:383-96 (2011)). The heat shock protein 90 inhibitor, 17-desmethoxy-17-N,N-dimethylaminoethylamino-geldanamycin (17-DMAG), was dissolved in DMSO (100 μM stock). Based on prior IC50 measurements, the RPMI-8226 cells were treated with 100 nM 17-DMAG for 24 hours, and 8226/LR5 cells were treated with 50 nM 17-DMAG. Cells (n=10^6) were lysed using in aqueous 100 mM ammonium bicarbonate containing 8M urea for protein denaturation. Protein concentrations were measured by Bradford assays; consistent aliquots of total protein (380 ng) were injected for LC-MRM, and the same solutions were used for DI-MRM. Digestion, addition of SIS peptides, and mass spectrometry sample preparation were performed as described for standard proteins.
Calculation of Correction Factors to Account for Interference in DI MRM. […] To evaluate the ability to eliminate these contributions, correction factors were calculated based on LC-MRM data using the following set of equations (Equations 1 and 2): […]

[2] = test system: FOXO3a in M229R and 1205LuR cells; test: Immunofluorescent staining; assay type: cell-based; conditions: 48 hours; XL888 300 nM, GDC-0941 3 μM
Protocol: Immunofluorescent staining. M229R and 1205LuR cells were seeded at 50% confluency onto glass coverslips in a 12 well plate and allowed to adhere overnight. […] Fixed cells were separately stained by incubating overnight with rabbit anti-BIM or anti-FOXO3a antibodies followed by staining with secondary anti-rabbit AF488. Cells were then mounted onto slides with ProLong Gold Antifade containing DAPI (Invitrogen) and imaged with a Leica confocal microscope equipped with a 40x oil immersion lens.

[3] = 24 hrs vs. control, all LC-MRM transitions, interference-corrected
[4] = 24 hrs vs. control, noise corrected, only transitions below 40% interference

## CO[C@H]1/C=C\C=C(/C)C(=O)NC2=CC(=O)C(NCCN(C)C)=C(C[C@@H](C)C[C@H](OC)[C@H](O)[C@@H](C)/C=C(\C)[C@@H]1OC(N)=O)C2=O [17-DMAG, 17-Dimethylaminoethylamino-17-demethoxygeldanamycin]
[1]
  H90B2 Post-Treatment: 25.3 amol/cell
[1]; peptide ADLINNLR
  HSPB3 Post-Treatment: 0.14 amol/cell
[1]; peptide AFSDPFVEAEK
  HSP74 Post-Treatment: 0.89 amol/cell
[1]; peptide ALLFIPR
  HS90B Post-Treatment: 14.5 amol/cell
[1]; peptide ALLFVPR
  HS90A Post-Treatment: 20.9 amol/cell
[1]; peptide EIAEAYLGGK
  HSP72 Post-Treatment: 0.39 amol/cell
[1]; peptide GTLDPVEK
  HSP7C Post-Treatment: 14.9 amol/cell
[1]; peptide LQAEAQQLR
  CDC37 Post-Treatment: 0.91 amol/cell
[1]; peptide NQVALNPQNTVFDAK
  HSP71 Post-Treatment: 0.051 amol/cell
[1]; peptide VEIIANDQGNR
  GRP78 Post-Treatment: 110 amol/cell
[1]; post- vs pre-treatment
  CDC37 Ratio: 1.07
  GRP78 Ratio: 2.25
  H90B2 Ratio: 1.57
  HS90A Ratio: 1.87
  HS90B Ratio: 1.84
  HSP7C Ratio: 1.93
  HSP71 Ratio: 3.95
  HSP72 Ratio: 1.21
  HSP74 Ratio: 1.23
  HSPB3 Ratio: 1.25
HSPs in RPMI-8226 cells; 24 hrs after treatment vs. control, ALLFVPR y3-y6 (All LC-MRM Transitions)
  HSP90α Fold Change, DI-MRM: 1.86
HSPs in RPMI-8226 cells; [3]
  CDC37 Fold Change, DI-MRM: 1.08
  HS90A Fold Change, DI-MRM: 1.86
  HS90B Fold Change, DI-MRM: 1.46
  HSP7C Fold Change, DI-MRM: 1.52
  HSP7E Fold Change, DI-MRM: 0.87
  HSP71 Fold Change, DI-MRM: 6.10
  HSP74 Fold Change, DI-MRM: 1.22
  HSPA5 Fold Change, DI-MRM: 3.43
HSPs in RPMI-8226 cells; [4]
  CDC37 Fold Change, DI-MRM: 1.20
  HS90A Fold Change, DI-MRM: 1.85
  HS90B Fold Change, DI-MRM: 1.46
  HSP7C Fold Change, DI-MRM: 1.84
  HSP7E Fold Change, DI-MRM: 0.81
  HSP71 Fold Change, DI-MRM: 6.10
  HSP74 Fold Change, DI-MRM: 1.37
  HSPA5 Fold Change, DI-MRM: 2.53
HSPs in RPMI-8226 cells; 24 hrs vs. control, y3 (Least Interference)
  HSP90α Fold Change, DI-MRM: 2.96
HSPs in RPMI-8226 cells; 24 hrs vs. control, y3-y5 (DI-MRM Interference-Corrected)
  HSP90α Fold Change, DI-MRM: 1.85
HSPs in RPMI-8226 cells; 24 hrs vs. control, y3-y5 (Selected Transitions)
  HSP90α Fold Change, DI-MRM: 1.85
HSPs in RPMI-8226 cells; 24 hrs vs. control, y3-y6 (DI-MRM Interference-Corrected)
  HSP90α Fold Change, DI-MRM: 1.87

## CC[C@@H](C)Nc1cc(C(=O)N[C@@H]2C[C@H]3CC[C@@H](C2)N3c2ccc(C(=O)C3CC3)cn2)c(C)cc1C(N)=O [XL888, 5-((R)-sec-butylamino)-N1-((1R,3s,5S)-8-(5-(cyclopropanecarbonyl)pyridin-2-yl)-8-azabicyclo[3.2.1]octan-3-yl)-2-methylterephthalamide]
[2]
  nuclear accumulation of FOXO3a: highly efficient at increasing nuclear accumulation of FOXO3a
